Assay results as given in PubChem BioAssay AID1259411 (Chemical Carcinogenesis Research Information System (CCRIS), 2018).
Activity calls are given as the source filed them. No rule for the calls is given here.

Test system: rodent carcinogenicity bioassays, tumor incidence
Test: CCRIS carcinogenicity studies
Details: Route: ORAL, Dose: 0, 25000, 50000 PPM IN DIET, Dose: 0, 25000, 50000 PPM IN DIET
Method in brief: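 NCI-built, expert-reviewed records of carcinogenicity and related test outcomes (mutagenicity, tumor promotion/inhibition) compiled from published and report sources, historical span 1985-2011, not updated.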

Measured: carcinogen call

N[C@@H](Cc1c[nH]c2ccccc12)C(=O)O
inactive: Species: MOUSE, Strain/Sex: B6C3F1/FEMALE inactive; negative | Species: MOUSE, Strain/Sex: B6C3F1/MALE inactive; negative | Species: RAT, Strain/Sex: F344/FEMALE inactive; negative | Species: RAT, Strain/Sex: F344/MALE inactive; negative
